Assay results: patent publication US20230025880A1, “FUSED TRICYCLIC COMPOUND AND MEDICINAL USE THEREOF” (JAPAN TOBACCO INC., priority 2020, published 2023)

Target: T1, human PDHK2 (hPDHK2) (Homo sapiens, UniProt Q15119)
T1 construct: made in house; host or cells: Escherichia coli BL21(DE3), pET-17b vector
Assay: Inhibitory action of PDHK2 activity (residual PDH activity, NADH absorbance at 340 nm)
Type: biochemical
Settings: PDH/hPDHK2 complex, PDHK reaction 45 min at room temperature
Protocol: In the case of human PDHK2 (hPDHK2, NCBI Reference Database Accession number NM_002611.4), modified hPDHK2 cDNA wherein FLAG-Tag sequence was added to the N terminus of hPDHK2 cDNA clone (pReceiver-M01/PDK2-GeneCopoeia) as the base was prepared by polymerase chain reaction (PCR) and ligated to the NdeI/EcoRI site of pET-17b vector (Merck KGaA, Catalog Number 69663-3). The recombinant construct was transformed into Escherichia coli DH5α. The recombinant clones were identified, and plasmid DNA was isolated and subjected to the DNA sequence analysis. One clone which had the expected nucleic acid sequence was selected for expression work.
For expression of hPDHK2 activity, Escherichia coli strain BL21(DE3) cells (Merck KGaA, Catalog Number 69450-4) were transformed with the pET17b vector containing modified hPDHK2 cDNA. The Escherichia coli were grown to an optical density 0.6 ([…]) at 30° C. Protein expression was induced by the addition of 500 μmol/L isopropyl-β-thiogalactopyranoside. The Escherichia coli were cultured at 20° C. for 17-18 hr and harvested by centrifugation. The harvested Escherichia coli was resuspended in a suspension buffer (20 mmol/L HEPES-NaOH, 500 mmol/L sodium chloride, 1% ethylene glycol, 0.1% Pluronic (registered trademark) F-68 (pH 8.0), cOmplete, EDTA-free (Roche) (pH 8.0)), and disrupted by a microfluidizer M-110H (MIZUHO INDUSTRIAL CO., LTD.). The precipitate was removed by centrifugation and the supernatant was added to DDDDK-tagged Protein PURIFICATION GEL (MEDICAL & BIOLOGICAL LABORATORIES CO., LTD., Code No. 3329). DDDDK-tagged Protein PURIFICATION GEL was washed with a washing buffer (20 mmol/L HEPES-NaOH, 500 mmol/L sodium chloride, 1% ethylene glycol, 0.1% Pluronic F-68 (pH 8.0)) and the bound protein was eluted with elution buffer 1 (20 mmol/L HEPES-NaOH, 100 μg/mL peptide (amino acid sequence DYKDDDDK) (SEQ ID NO: 1), 500 mmol/L sodium chloride, 1% ethylene glycol, 0.1% Pluronic F-68 (pH 8.0)). The eluted fractions containing FLAG-Tagged protein were pooled, concentrated by an ultrafiltration method, added to a gel filtration column (HiLoad 26/60 Superdex 200 (GE Healthcare Life Sciences, Code No. 17-1070-01)), and eluted with elution buffer 2 (20 mmol/L HEPES-NaOH, 150 mmol/L sodium chloride, 0.5 mmol/L ethylenediaminetetraacetic acid (EDTA), 1% ethylene glycol, 0.1% Pluronic F-68 (pH 8.0)). The eluted fractions were pooled and preserved at −80° C.
PDH (porcine heart PDH complex, Sigma P7032) and 0.5 μg/mL hPDHK2 were mixed in an assay buffer (50 mmol/L 3-morpholinopropanesulfonic acid (pH 7.0), 20 mmol/L dipotassium hydrogen phosphate, 60 mmol/L potassium chloride, 2 mmol/L magnesium chloride, 0.4 mmol/L EDTA, 0.2% poloxamer, 2 mmol/L dithiothreitol) so that the final concentration of PDH was 0.025 U/mL, and the mixture was incubated at 4° C. overnight to obtain a PDH/hPDHK2 complex solution.
PDH was mixed with the assay buffer so that the final concentration was 0.025 U/mL, and the mixture was incubated at 4° C. overnight to prepare a PDH solution.
The test compounds were diluted with DMSO. To measure an inhibitory action of the test compound on the PDHK activity in the PDH/hPDHK2 complex solution, PDH/hPDHK2 complex solution (20 μL), test compound (1.5 μL) and 1.06 μmol/L ATP (diluted with assay buffer) (8.5 μL) were added to a 384 well microplate (Greiner Bio-One 781801) and PDHK reaction was performed at room temperature for 45 min (test compound well). DMSO (1.5 μL) was added to control wells instead of test compound. In addition, DMSO (1.5 μL) was added to blank wells instead of the test compound, and PDH solution was added instead of the PDH/hPDHK2 complex solution. To measure an inhibitory action of the test compound on the PDHK activity inherent in the PDH solution, a test compound was added and the PDH solution instead of the PDH/hPDHK2 complex solution was added to a blank+test compound well. […]

IC50 [nM] | SMILES
31 | C[C@H]1Cn2nc(C(C)(O)C(F)(F)F)cc2-c2cnc([C@@](C)(O)C(F)(F)F)n21 (mixture of isomers) [Example 26]
9.3 | C[C@H]1Cn2c(-c3ccc(C(F)(F)F)cc3)nnc2-c2cnc([C@@](C)(O)C(F)(F)F)n21 [Example 54]
22 | C[C@H]1Cn2nc(O)cc2-c2cnc([C@@](C)(O)C(F)(F)F)n21 [Example 28]
6.3 | C[C@H]1Cn2c(nnc2C2CC2)-c2cnc([C@@](C)(O)C(F)(F)F)n21 [Example 14]
26 | C[C@H]1Cn2c(nnc2C(F)(F)F)-c2cnc([C@@](C)(O)C(F)(F)F)n21 [Example 2, (R)-1,1,1-trifluoro-2-((S)-6-methyl-3-(trifluoromethyl)-5,6-dihydroimidazo[1,5-a] [1,2,4]triazolo[3,4-c]pyrazin-8-yl)propan-2-ol]
14 | C[C@H]1Cn2nc(C(F)(F)F)cc2-c2cnc([C@@](C)(O)C(F)(F)F)n21 [Example 4]
8.1 | C[C@H]1Cn2c(nnc2C(C)(C)C(F)(F)F)-c2cnc([C@@](C)(O)C(F)(F)F)n21 [Example 39]
6.3 | C[C@H]1Cn2c(nnc2C(F)(F)Oc2ccc(F)cc2)-c2cnc([C@@](C)(O)C(F)(F)F)n21 [Example 62]
12 | C[C@H]1Cn2c(-c3ccc(F)c(OC(C)(C)C)c3)nnc2-c2cnc([C@@](C)(O)C(F)(F)F)n21 [Example 98]
11 | C[C@H]1Cn2c(nnc2C(C)(C)F)-c2cnc([C@@](C)(O)C(F)(F)F)n21 [Example 91]
6.3 | C[C@H]1Cn2c(-c3ccc(F)cc3)nnc2-c2cnc([C@@](C)(O)C(F)(F)F)n21 [Example 21]
14 | C[C@H]1Cn2nc(C(C)(C)C)cc2-c2cnc([C@@](C)(O)C(F)(F)F)n21 [Example 15]
14 | C[C@H]1Cn2nc(OCCOC(F)(F)F)cc2-c2cnc([C@@](C)(O)C(F)(F)F)n21 [Example 61]
220 | C[C@H]1Cc2cnc(C(F)(F)F)nc2-c2cnc([C@@](C)(O)C(F)(F)F)n21 (racemic) [Example 6, 1,1,1-trifluoro-2-(6-methyl-2-(trifluoromethyl)-5,6-dihydroimidazo[1′,5′:1,2]pyrido[3,4-d]pyrimidin-8-yl)propan-2-ol]
22 | C[C@H]1Cn2nc(C(C)(C)O)cc2-c2cnc([C@@](C)(O)C(F)(F)F)n21 [Example 20]
23 | C[C@H]1Cn2nc(OCC(O)(C(F)(F)F)C(F)(F)F)cc2-c2cnc([C@@](C)(O)C(F)(F)F)n21 [Example 85]
10 | CCC(F)(F)c1nnc2n1C[C@H](C)n1c-2cnc1[C@@](C)(O)C(F)(F)F [Example 59]
7 | C[C@H]1Cn2c(-c3ccc(F)cc3C(F)(F)F)nnc2-c2cnc([C@@](C)(O)C(F)(F)F)n21 [Example 56]
6.8 | CC(C)C(F)(F)c1nnc2n1C[C@H](C)n1c-2cnc1[C@@](C)(O)C(F)(F)F [Example 60]
21 | COC(c1nnc2n1C[C@H](C)n1c-2cnc1[C@@](C)(O)C(F)(F)F)(C(F)(F)F)C(F)(F)F [Example 93]
13 | Cc1cc2n(n1)C[C@H](C)n1c-2cnc1[C@@](C)(O)C(F)(F)F [Example 9]
8.8 | C[C@H]1Cn2c(nnc2C2(c3ccc(Cl)cc3)COC2)-c2cnc([C@@](C)(O)C(F)(F)F)n21 [Example 89]
7.4 | C[C@H]1Cn2c(nnc2C(F)(F)c2ccccc2Cl)-c2cnc([C@@](C)(O)C(F)(F)F)n21 [Example 73]

Further lines, the compound ahead of its results:

SMILES | IC50 [nM]
C[C@H]1Cn2nc(OCC3CCN(S(C)(=O)=O)CC3)cc2-c2cnc([C@@](C)(O)C(F)(F)F)n21 [Example 68] | 14
C[C@H]1Cn2nc(C=O)cc2-c2cnc([C@@](C)(O)C(F)(F)F)n21 [Example 37] | 21
C[C@H]1Cn2nc(OCC3CN(S(C)(=O)=O)C3)cc2-c2cnc([C@@](C)(O)C(F)(F)F)n21 [Example 65] | 13
C[C@H]1Cn2nc(C(=O)O)cc2-c2cnc([C@@](C)(O)C(F)(F)F)n21 [Example 41] | 21
C[C@H]1Cc2cc(C#N)ccc2-c2cnc([C@@](C)(O)C(F)(F)F)n21 (racemic) [Example 5] | 21
C[C@H]1Cn2nc(O[C@@H]3CCOC3)cc2-c2cnc([C@@](C)(O)C(F)(F)F)n21 [Example 101] | 14
C[C@H]1Cn2nc(OCC3(C#N)CC3)cc2-c2cnc([C@@](C)(O)C(F)(F)F)n21 [Example 51] | 17
C[C@H]1Cc2ccccc2-c2cnc([C@@](C)(O)C(F)(F)F)n21 (racemic) [Example 1, 1,1,1-trifluoro-2-(5-methyl-5,6-dihydroimidazo[5,1-a]isoquinolin-3-yl)propan-2-ol] | 16
C[C@H]1Cn2nc(O[C@H]3CCOC3)cc2-c2cnc([C@@](C)(O)C(F)(F)F)n21 [Example 102] | 16
C[C@H]1Cn2nc(OC(F)F)cc2-c2cnc([C@@](C)(O)C(F)(F)F)n21 [Example 23, (R)-2-((S)-9-(difluoromethoxy)-5-methyl-5,6-dihydroimidazo[1,5-a]pyrazolo[5,1-c]pyrazin-3-yl)-1,1,1-trifluoropropan-2-ol] | 13
C[C@H]1Cn2nc(OC3CN(C(=O)c4ccc(F)cc4)C3)cc2-c2cnc([C@@](C)(O)C(F)(F)F)n21 [Example 58] | 8.8
C[C@H]1Cn2nc(C(=O)N3CC(F)(F)C3)cc2-c2cnc([C@@](C)(O)C(F)(F)F)n21 [Example 38] | 14
C[C@H]1Cn2nc(OCC(F)F)cc2-c2cnc([C@@](C)(O)C(F)(F)F)n21 [Example 46] | 13
CC(=O)N1CCC(c2cc3n(n2)C[C@H](C)n2c-3cnc2[C@@](C)(O)C(F)(F)F)CC1 [Example 75] | 19
C[C@H]1Cn2nc(Oc3ccc(C#N)cn3)cc2-c2cnc([C@@](C)(O)C(F)(F)F)n21 [Example 47] | 20
C[C@H]1Cn2nc(OCC3CN(C(=O)c4ccc(F)cc4)C3)cc2-c2cnc([C@@](C)(O)C(F)(F)F)n21 [Example 66] | 18
C[C@H]1Cn2nc(OCc3ccccc3)cc2-c2cnc([C@@](C)(O)C(F)(F)F)n21 [Example 27] | 11
C[C@H]1Cn2nc(OCCC(C)(C)O)cc2-c2cnc([C@@](C)(O)C(F)(F)F)n21 [Example 30] | 12
C[C@H]1Cn2nc(OCC3COC3)cc2-c2cnc([C@@](C)(O)C(F)(F)F)n21 [Example 78] | 17
C[C@H]1Cn2nc(C(=O)N(C)C)cc2-c2cnc([C@@](C)(O)C(F)(F)F)n21 [Example 22] | 12
C[C@H]1Cn2nc(OCCN3CCCC3=O)cc2-c2cnc([C@@](C)(O)C(F)(F)F)n21 [Example 63] | 14
C[C@H]1Cn2nc(Oc3ccnc(C(F)(F)F)c3)cc2-c2cnc([C@@](C)(O)C(F)(F)F)n21 [Example 86] | 16
C[C@H]1Cn2nc(OCCOC(F)F)cc2-c2cnc([C@@](C)(O)C(F)(F)F)n21 [Example 96] | 13
C[C@H]1Cn2nc(Oc3ccc(C#N)nc3)cc2-c2cnc([C@@](C)(O)C(F)(F)F)n21 [Example 95] | 18
C[C@H]1Cn2nc(OCC(=O)N3CC(F)(F)C3)cc2-c2cnc([C@@](C)(O)C(F)(F)F)n21 [Example 53] | 13
